# Test results reported in patent US8501713B2, “Drug combinations for the treatment of duchenne muscular dystrophy” (Summit Corporation PLC, priority 2007, dated 2013).
# Tested on: Utrophin A promoter linked to a luciferase reporter gene
# Assay: Luciferase reporter assay (murine H2K cells)
# Assay type: cell-based
# Settings: Mus musculus, H2K mdx, luciferase level relative to control; H2K/mdx/Utro A reporter cells; compound 10 μM final concentration; read-out: Activity
# In short: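 Compound at 10 μM final was applied for 48 hrs to plated H2K mdx myoblasts (33° C, 10% CO2, interferon-containing medium) bearing a luciferase gene under the utrophin A promoter. Luminescence from lysed cells served as read-out.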
row,Compound,activity at 10 µM [%]
1,"c1ccc(CNc2ccc3oc(-c4ccccc4)nc3c2)cc1 [Example 156, N-benzyl-2-phenylbenzo[d]oxazol-5-amine]",301 to 400
2,"Cc1ccc(-c2nc3cccnc3o2)cc1 [Example 157, 2-p-tolyloxazolo[5,4-b]pyridine]",301 to 400
3,"Cc1ccc(-c2nc3ncccc3o2)cc1 [Example 158, 2-p-tolyloxazolo[4,5-b]pyridine]",< 200
4,"Nc1ccc2oc(-c3ccc(N4CCOCC4)cc3)nc2c1 [Example 159, 2-(4-morpholinophenyl)benzo[d]oxazol-5-amine]",< 200
5,"COCCC(=O)Nc1ccc2oc(-c3ccc(C)cc3)nc2c1 [Example 160, 3-methoxy-N-(2-p-tolylbenzo[d]oxazol-5-yl)propanamide]",> 401
6,"Cc1ccc(-c2nc3cc(-c4ccccc4)ccc3o2)cc1 [Example 161, 5-phenyl-2-p-tolylbenzo[d]oxazole]",301 to 400
7,"Clc1ccc(-c2nc3cc(-c4ccccc4)ccc3o2)cc1 [Example 162, 2-(4-chlorophenyl)-5-phenylbenzo[d]oxazole]",< 200
8,"O=[N+]([O-])c1ccc2oc(C3CCCCC3)nc2c1 [Example 163, 2-cyclohexyl-5-nitrobenzo[d]oxazole]",< 200
9,"O=[N+]([O-])c1ccc2nc(-c3ccc(Cl)cc3)[nH]c2c1 [Example 164, 2-(4-chlorophenyl)-6-nitro-1H-benzo[d]imidazole]",201 to 300
10,"O=C(Cc1ccccc1)Nc1ccc2oc(Cc3ccccc3)nc2c1 [Example 165, N-(2-benzylbenzo[d]oxazol-5-yl)-2-phenylacetamide]",< 200
11,"CCCC(=O)Nc1ccc2[nH]c(-c3ccc(C)cc3)nc2c1 [Example 166, N-(2-p-tolyl-1H-benzo[d]imidazol-5-yl)butyramide]",< 200
12,"CCCCNc1ccc2oc(-c3ccccc3)nc2c1 [Example 167, N-butyl-2-phenylbenzo[d]oxazol-5-amine]",> 401
13,"CC(C)CNc1ccc2oc(-c3ccccc3)nc2c1 [Example 168, N-isobutyl-2-phenylbenzo[d]oxazol-5-amine]",> 401
14,"Nc1cnc2oc(-c3ccccc3)nc2c1 [Example 169, 2-phenyloxazolo[5,4-b]pyridin-6-amine]",< 200
15,"CCCC(=O)Nc1cnc2oc(-c3ccccc3)nc2c1 [Example 170, N-(2-phenyloxazolo[5,4-b]pyridin-6-yl)butyramide]",< 200
16,"O=[N+]([O-])c1ccc2oc(-c3ccccn3)nc2c1 [Example 171, 5-nitro-2-(pyridin-2-yl)benzo[d]oxazole]",< 200
17,"Cc1ccc(-c2nc3cc(C(C)(C)C)ccc3o2)cc1 [Example 172, 5-tert-butyl-2-p-tolylbenzo[d]oxazole]",> 401
18,"Cc1ccc(-c2nc3ccccc3o2)cc1 [Example 173, 2-p-tolylbenzo[d]oxazole]",301 to 400
19,"Nc1ccc2oc(-c3cccc(C(F)(F)F)c3)nc2c1 [Example 174, 2-(3-(trifluoromethyl)phenyl)benzo[d]oxazol-5-amine]",< 200
20,"Cc1ccc(-c2nc3cc(NC(=O)C(C)C)ccc3[nH]2)cc1 [Example 175, N-(2-p-tolyl-1H-benzo[d]imidazol-5-yl)isobutyramide]",< 200
21,"CCCCNC(=O)c1ccc2oc(-c3ccc(C)cc3)nc2c1 [Example 176, N-butyl-2-p-tolylbenzo[d]oxazole-5-carboxamide]",201 to 300
22,"CCCNC(=O)c1ccc2oc(-c3ccc(C)cc3)nc2c1 [Example 177, N-propyl-2-p-tolylbenzo[d]oxazole-5-carboxamide]",> 401

row,Compound,activity at 10 µM [%]
1,"CCCC(=O)Nc1ccc2[nH]c(-c3ccc(Cl)cc3)nc2c1 [Example 178, N-(2-(4-chlorophenyl)-1H-benzo[d]imidazol-5-yl)butyramide]",< 200
2,"CCS(=O)(=O)c1ccc2oc(-c3ccc(C)cc3)nc2c1 [Example 179, 5-(ethylsulfonyl)-2-p-tolylbenzo[d]oxazole]",> 401
3,"CCS(=O)(=O)c1ccc2oc(-c3ccc(Cl)cc3)nc2c1 [Example 180, 2-(4-chlorophenyl)-5-(ethylsulfonyl)benzo[d]oxazole]",> 401
4,"Cc1ccc(-c2nc3cc(C(=O)NC(C)C)ccc3o2)cc1 [Example 181, N-isopropyl-2-p-tolylbenzo[d]oxazole-5-carboxamide]",301 to 400
5,"CCCCNc1ccc2oc(-c3ccc(Cl)cc3)nc2c1 [Example 182, N-butyl-2-(4-chlorophenyl)benzo[d]oxazol-5-amine]",301 to 400
6,"CC(C)CNc1ccc2oc(-c3ccc(Cl)cc3)nc2c1 [Example 183, 2-(4-chlorophenyl)-N-isobutylbenzo[d]oxazol-5-amine]",301 to 400
7,"Clc1ccc(-c2nc3cc(NCc4ccccc4)ccc3o2)cc1 [Example 184, N-benzyl-2-(4-chlorophenyl)benzo[d]oxazol-5-amine]",< 200
8,"CCCCNc1ccc2oc(-c3ccc(C)cc3)nc2c1 [Example 185, N-butyl-2-p-tolylbenzo[d]oxazol-5-amine]",301 to 400
9,"Cc1ccc(-c2nc3cc(NCC(C)C)ccc3o2)cc1 [Example 186, N-isobutyl-2-p-tolylbenzo[d]oxazol-5-amine]",301 to 400
10,"Cc1ccc(-c2nc3cc(NCc4ccccc4)ccc3o2)cc1 [Example 187, N-benzyl-2-p-tolylbenzo[d]oxazol-5-amine]",301 to 400
11,"CC(C)C(=O)Nc1ccc2[nH]c(-c3ccccc3)nc2c1 [Example 188, N-(2-phenyl-1H-benzo[d]imidazol-5-yl)isobutyramide]",301 to 400
12,"Cc1ccc(-c2nc3c([N+](=O)[O-])cccc3o2)cc1 [Example 189, 4-nitro-2-p-tolylbenzo[d]oxazole]",< 200
13,"Cc1ccc(-c2nc3ccc([N+](=O)[O-])cc3o2)cc1 [Example 190, 6-nitro-2-p-tolylbenzo[d]oxazole]",301 to 400
14,"O=[N+]([O-])c1ccc2nc(-c3ccc(Cl)cc3)oc2c1 [Example 191, 2-(4-chlorophenyl)-6-nitrobenzo[d]oxazole]",201 to 300
15,"Cc1ccc(-c2nc3cnccc3o2)cc1 [Example 192, 2-p-tolyloxazolo[4,5-c]pyridine]",< 200
16,"CCCS(=O)(=O)Nc1ccc2oc(-c3ccccc3)nc2c1 [Example 193, N-(2-phenylbenzo[d]oxazol-5-yl)propane-1-sulfonamide]",201 to 300
17,"CCCC(=O)Nc1ccc2[nH]c(-c3ccccc3)nc2c1 [Example 194, N-(2-phenyl-1H-benzo[d]imidazol-5-yl)butyramide]",201 to 300
18,"CC(C)C(=O)Nc1ccc2[nH]c(-c3ccc(Cl)cc3)nc2c1 [Example 195, N-(2-(4-chlorophenyl)-1H-benzo[d]imidazol-5-yl)isobutyramide]",201 to 300
19,"Cc1cccc(-c2nc3cc(N)ccc3o2)c1 [Example 196, 2-m-tolylbenzo[d]oxazol-5-amine]",< 200
20,"CN(C)c1cccc(-c2nc3cc(N)ccc3o2)c1 [Example 197, 2-(3-(dimethylamino)phenyl)benzo[d]oxazol-5-amine]",< 200
21,"Cc1ccc(-c2nc3cc(Br)ccc3o2)cc1 [Example 198, 5-bromo-2-p-tolylbenzo[d]oxazole]",301 to 400
